Holding throughout (type): cell-based, human
Experiment [1] deals with MAGE mRNA in HMC-1.1 cell. The experiment can be described thus: Genechip array analysis of MAGE mRNA after STI 571. Conditions: HMC-1.1 cells, 1 μM STI571 for 4 hours, Means +/- SEM. From the text:
(§1) The human mast cell line HMC-1 is dependent on the expression of mutant KIT protein which is constitutively activated, and inhibition of activated KIT with a drug induces apoptosis of HMC-1 cells (Ma et al., 2002, The c-KIT mutation causing human mastocytosis is resistant to STI571 and other KIT kinase inhibitors; kinases with enzymatic site mutations show different inhibitor sensitivity profiles than wild-type kinases and those with regulatory-type mutations. Blood 99:1741-4.). However, the mechanism by which KIT inhibitors cause apoptosis in these cells is unknown. To look for genes whose products could regulate and transduce KIT related signals controlling apoptosis, we used gene chip array analysis to study changes in the mRNA levels of specific genes following induction of apoptosis.
HMC-1.1 cells were divided into triplicate cultures of two groups: a control group treated with PBS, and an experimental group treated with 1 μM STI571, a KIT inhibitor for 4 hours. A quarter of the cells were used for Western blots to confirm the KIT inhibition, and the rest were used for total RNA isolation for genechip analysis. We used Affymetrix Genechip human Genome U133A chips. The arrays were hybridized and scanned and the data were analyzed using dChip analysis software. The statistical significance of differences in mRNA expression levels between STI571 treated and control cells were assessed by t-test based on data from three independent replicates. Values are expressed as Means +/−SEM, and p<0.05 was considered statistically significant.

The test system of a further experiment is HMC-1.1 cells. Put plainly: Induction of apoptosis by STI 571. Conditions: following decrease of MAGE mRNA and protein.
Source text: as §1

Experiment [2] has as its system MAGE-A protein in HMC-1.1 cells. Put plainly: Western blot of MAGE-A protein after STI 571. Conditions: 12 and 24 hours after administration of STI 571. On the technique in general: A western blot detects proteins with antibodies after separation by electrophoresis.

The structures appear in SMILES notation.

As for `Cc1ccc(NC(=O)c2ccc(CN3CCN(C)CC3)cc2)cc1Nc1nccc(-c2cccnc2)n1` [STI 571], the “mRNA level, melanoma antigen, family A, 1 (NM_004988)” value in experiment [1] (three replicates, PBS control 757 ± 29) amounted to 562 ± 33. In addition, the “mRNA level, melanoma antigen, family A, 12 (BC003408)” value in experiment [1] (PBS control 513 ± 29) was found to be 410 ± 26. Further, the “mRNA level, melanoma antigen, family E, 1 (NM_016249)” value in experiment [1] (PBS control 514 ± 13) stood at 405 ± 21. Also, in experiment [1] (PBS control 520 ± 28), the “mRNA level, melanoma antigen, family A, 5 (AI200443)” value is listed as 414 ± 28. Further, the “mRNA level, melanoma antigen, family A, 6 (U10691)” value in experiment [1] (PBS control 896 ± 54) is 712 ± 42. Besides, in experiment [1] (PBS control 977 ± 67), the “mRNA level, melanoma antigen, family A, 3 (BC000340)” value was 779 ± 32. Also, the “apoptosis of the cells” value with HMC-1.1 cells is “followed by apoptosis of the cells”. Further, the “MAGE-A protein level (Western blot)” value in experiment [2] was “down-regulation of MAGE-A protein”.
